The conditions of series [1]: in humans; cited from earlier work.
Series [2] relates to NIO J774A.1 macrophage cells. Description: in vitro cytotoxicity, resazurin assay, NIO cells. The series is classed as cell-based. The following applies: Mus musculus, J774.A1, 48 h, rPR-DFO at equivalent DFO concentrations, read-out: concentration inhibiting 50% cell viability. In general terms: Alamar Blue is a resazurin reagent that responds to reducing activity.
Experimental: Briefly, both NIO and IO J774A.1 macrophage cells were seeded in 96-well plates at a density of 3,000 cells/well, cultured at 37° C., 5% CO2 and 100% humidity with DMEM complete medium for 24 h. Cells were then treated with 1 mM free DFO or rPR-DFO at equivalent DFO concentrations (prepared by 1:3 serial dilutions) for 48 h; equivalent rPR-OH based on w/v to rPR-DFO concentrations was also investigated. Next, the substrate resazurin was dissolved in cell culture medium at a concentration of 44 μM, added to each well (100 μl), and incubated at 37° C. for 4 h. The fluorescence change was monitored by exciting at 560 nm and measuring emission at 590 nm with a SpectraMax Gemini EM microplate reader. Readings from wells without cells were used as Eblank, and the readings from control cells without treatment (Econtrol) represented 100% cell viability. The viability of treated cells was calculated by the following equation:
The test system of series [3] is NIO mice (Balb/C). Description: acute toxicity in normal NIO mice. It is filed as in vivo, mouse. The settings on record: single-dose 300 mg/kg DFO equiv or 100 mg/kg DFO equiv every 2 days x6, tail-vein, 14 days. The procedure:
Normal NIO mice (Balb/C, Female, 6 weeks old), randomly divided into 7 groups (n=6), were treated with saline, single-dose (300 mg/kg DFO equiv) or multiple-dose (100 mg/kg DFO equiv every 2 days, six doses total) regimens of DFO, rPR-DFO, and rPR-OH (same concentrations as rPR-DFO based on w/v) via tail-vein injections (10 μL/g). Mice were monitored for 14 days for signs of acute toxicity based on body weight loss, changes in appetite, and changes in behavior such as altered gait and lethargy. The body weights of the mice were recorded every other day over the course of the study. Mice were euthanized by CO2 overdose on the 14th day. The lungs, heart, spleen, kidneys, brain and liver of animals were subsequently harvested, rinsed with fresh PBS, blotted dry with Whatman filter paper, and then weighed (note that organ weight is reported as mg of total organ weight per g of animal bw, mg/g). […] Mice also behaved normally and no changes in appetite were noted.

As for `CC(=O)N(O)CCCCCNC(=O)CCC(=O)N(O)CCCCCNC(=O)CCC(=O)N(O)CCCCCN` [DFO, Deferoxamine], the “half-life (blood circulation)” value in series [1] is “ca. 20 min”. In addition, the IC50 in series [2] is ~10 µM. The “acute toxicity based on body weights and organ weights” value in series [3] was “no apparent evidence of acute toxicity”.

The values above are taken from patent publication US20210008220A1, “PHARMACEUTICAL COMPOSITIONS CONTAINING POLYROTAXANES” (UNIVERSITY OF GEORGIA RESEARCH FOUNDATION, INC., priority 2018, published 2021).
